Source: PubChem BioAssay (NCI)
Several values for one entry are separate records, joined by “and”; a condition that tells them apart may be missing. Equal entries are not always repeated.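 Five concentrations, 48 hours, 96-well plates. GI50 = concentration required for 50% inhibition of growth. TGI is the concentration that stops growth completely.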

Experiments:
Test in all cases: NCI tumour cell line growth inhibition, 48 h; in the data active means GI50 below about 0.43 µM; inactive means the rest
[1] = system: P388 leukemia
[2] = system: HOP-18 NSCLC
[3] = system: SN12K1 renal
[4] = system: KM20L2 colon
[5] = system: MDA-N
[6] = system: P388/ADR leukemia
[7] = system: DLD-1 colon
[8] = system: M19-MEL melanoma
[9] = system: LXFL 529 NSCLC
[10] = system: XF 498 CNS
[11] = system: DMS 273 small cell lung
[12] = system: RXF-631 renal

COC(=O)C12OCC34C(CC5C(C)=CC(=O)C(O)C5(C)C3C(O)C1O)OC(=O)C(OC(=O)CC(C)C)C24 (stereo not given)
0.0463 µM and 0.274 µM and 0.219 µM: TGI [2]
0.00272 µM: TGI [3]
active: GI50 [1] 0.05 µM | GI50 [2] 0.00907 µM and 0.0441 µM and 0.05 µM | GI50 [3] 0.000382 µM | GI50 [4] 0.0479 µM and 0.05 µM | GI50 [6] 0.0657 µM | GI50 [7] 0.0633 µM and 0.05 µM | GI50 [8] < 0.0377 µM | GI50 [9] 0.00384 µM | GI50 [10] 0.041 µM and 0.05 µM
0.00503 µM: TGI [5]
0.0825 µM and 0.104 µM: TGI [9]

O=C1CC23CC(=O)CC2(C1)c1ccccc1C3=O (stereo not given)
> 100 µM: TGI [2] | TGI [4] | TGI [7] | TGI [8] | TGI [9] | TGI [10] | TGI [11]

O=C(O)C#Cc1ccc([N+](=O)[O-])cc1
> 100 µM: TGI [5]

O=CN/C=C/c1ccccc1O
> 100 µM: TGI [2] | TGI [4] | TGI [7] | TGI [8] | TGI [9] | TGI [11]

O=C(Nc1ccc(Cl)cc1Cl)/C(Cl)=C1/Sc2ccccc2NC1=O
40.5 µM: TGI [10]
> 100 µM: TGI [4] | TGI [7] | TGI [8] | TGI [9]

O=[N+]([O-])c1ccc(C2N3CCCCC3[C@@H]3c4[nH]c5ccccc5c4CCN23)cc1 (stereo not given in full)
33.9 µM: TGI [10]
> 100 µM: TGI [2] | TGI [12] | TGI [9] | TGI [11]
24.5 µM: TGI [4]
57.7 µM: TGI [7]
24.4 µM: TGI [8]

O=S(=O)(c1ccccc1)C1CN(Cc2ccccc2)CCN(Cc2ccccc2)C1
84.7 µM: TGI [7]
63 µM: TGI [10]
> 100 µM: TGI [4] | TGI [8] | TGI [9] | TGI [11]
59.5 µM: TGI [5]

O=C(Cc1nc2ccccc2s1)NC12CC3CC(CC(C3)C1)C2
> 100 µM: TGI [4] | TGI [12] | TGI [7] | TGI [8] | TGI [9] | TGI [11]

O=c1[nH]c(C2CCCCC2)nc2cc(Cl)ccc12
> 100 µM: TGI [4] | TGI [8] | TGI [9] | TGI [11]

C=C1CCC2C(C)(CO)C(O)CCC2(C)C1CC(O)C1=CCOC1=O (stereo not given)
> 100 µM: TGI [2] | TGI [4] | TGI [12] | TGI [7] | TGI [8] | TGI [9] | TGI [11]

Cc1ccc(S(=O)(=O)NC(=O)Nc2nc(Cl)cc(Cl)n2)cc1
> 100 µM: TGI [2] | TGI [4] | TGI [12] | TGI [7] | TGI [8] | TGI [9] | TGI [10]

C/C(CC(=O)Nc1ccc([N+](=O)[O-])cc1)=N/N=C(N)N
> 100 µM: TGI [4] | TGI [12] | TGI [7] | TGI [8] | TGI [9] | TGI [10] | TGI [11]

N=C1N=Nc2nc(C3(c4nc5n(c4O)C(=N)N=N5)Cc4ccccc4C3=O)c(O)n21 (stereo not given)
> 100 µM: TGI [5]

CC(C)(C)C1CCN(C(=O)c2ccccc2)CC1
> 100 µM: TGI [2] | TGI [4] | TGI [7] | TGI [8] | TGI [9] | TGI [11]

Cc1ccccc1C(C#N)/C(=N/NC(=O)C(=O)NN)C(=O)Nc1cccc(C(F)(F)F)c1 (stereo not given)
> 100 µM: TGI [2] | TGI [4] | TGI [12] | TGI [7] | TGI [8] | TGI [9] | TGI [11]

COC(=O)CCC(=O)C(C#N)c1ccc(Cl)cc1Cl (stereo not given)
> 100 µM: TGI [4] | TGI [12] | TGI [7] | TGI [8] | TGI [9] | TGI [10] | TGI [11]

CNC(=S)N/N=C(/C)CCC/C(C)=N/NC(=S)NC
> 100 µM: TGI [5]

O=c1nc2[nH]nc(-c3ccccc3)c2n[nH]1
> 100 µM: TGI [4] | TGI [7] | TGI [9] | TGI [11]

NC(CCCNCc1ccccc1O)C(=O)O (stereo not given)
> 100 µM: TGI [2] | TGI [4] | TGI [7] | TGI [8] | TGI [9] | TGI [11]

O=C1[C@H](c2ccccc2)C2c3ccccc3CCN12 (stereo not given in full)
> 100 µM: TGI [5]
inactive: GI50 [5] > 100 µM

N#Cc1ccccc1/C=N/O
> 100 µM: TGI [2] | TGI [4] | TGI [7] | TGI [8] | TGI [9] | TGI [10]
> 55.6 µM: TGI [11]

COC(=O)/C(Cl)=C1/CC1COCc1ccccc1 (stereo not given)
54.9 µM: TGI [11]
58.4 µM: TGI [10]
45.8 µM: TGI [7]
31.1 µM: TGI [9]
93.2 µM: TGI [8]
> 100 µM: TGI [4]

COc1cc([C@@H]2c3cc4c(cc3[C@@H](NC(=O)c3ccc([N+](=O)[O-])cc3)C3COC(=O)[C@@H]32)OCO4)cc(OC)c1O (stereo not given in full)
11.3 µM: TGI [7]
3.54 µM: TGI [11]
3.73 µM: TGI [4]
> 100 µM: TGI [2] | TGI [9]
19 µM: TGI [8]
0.964 µM: TGI [10]
4.48 µM: TGI [12]

C/C(CN1C(=O)c2ccccc2C1=O)=N\NS(C)(=O)=O
> 100 µM: TGI [2] | TGI [4] | TGI [7] | TGI [8] | TGI [9] | TGI [10] | TGI [11]

Cn1c(-c2ccccc2)c/c(=N\NS(C)(=O)=O)c2cc(S(=O)(=O)O)ccc21
> 100 µM: TGI [2] | TGI [4] | TGI [7] | TGI [8] | TGI [9] | TGI [10] | TGI [11]

Clc1ccc(CCn2cncn2)c(Cl)c1
> 100 µM: TGI [2] | TGI [4] | TGI [7] | TGI [8] | TGI [9] | TGI [11]

[O-][N+]1=C(c2ccccc2)COc2ccccc21
> 100 µM: TGI [2] | TGI [4] | TGI [12] | TGI [7] | TGI [8] | TGI [9] | TGI [11]

NS(=O)(=O)c1ccc(NCc2cnc3ccccc3c2)cc1
> 100 µM: TGI [5]

COc1ccc(OC)c(/C=C/c2cnnc3ccccc23)c1
2.5 µM: TGI [5]

Cc1cc2c(=O)cc(-c3ccc(C(=O)O)cc3)oc2c(C(=O)O)c1C
> 100 µM: TGI [2] | TGI [4] | TGI [12] | TGI [7] | TGI [8] | TGI [9] | TGI [11]

COc1ccc2c(c1)N(CCC1CCCCN1C)c1ccccc1S2 (stereo not given)
25.7 µM: TGI [5]

O=C1/C(=c2\c3ccccc3n3c(=O)c4ccccc4nc23)Nc2ccccc21
33.6 µM: TGI [5]

FC(F)(F)c1ccccc1C=NC12CC3CC(CC(C3)C1)C2
> 100 µM: TGI [4] | TGI [8] | TGI [10] | TGI [11]
